# In the supplement of paper PMC12076712:
# Experiments:
# Experiment in all cases: pIC50, kinobeads binding competition
# DAPK3 = DAPK3 (UniProt O43293)
# Method in brief: (§1)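 Fold changes relative to vehicle, from biological duplicates, were fitted with logistic dose-response models in the R drc package to give pIC50. These fold changes came from TMT10 LC-MS/MS quantification of digested Kinobeads-bound proteins. Compound was applied at nine concentrations (top 30 μM) either to live Jurkat cells in 1:4 steps for 60 min at 37 °C before lysis, or to Jurkat lysate or a 1:1:1:1 HEK293/K-562/HepG2/placenta lysate mix in 1:5 steps for 60 min at 4 °C.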
# DYRK1A = DYRK1A (UniProt Q13627)
# Method in brief: as §1
# LRRK2 = LRRK2 (UniProt Q5S007); settings: cell material: Lysate mix
# Method in brief: as §1
# MAP3K4 = MAP3K4 (UniProt Q9Y6R4)
# Method in brief: as §1
# MELK = MELK (UniProt Q14680)
# Method in brief: as §1
# NEK3 = target: T1, NEK3 (UniProt P51956)
# T1 sequence (whole entry): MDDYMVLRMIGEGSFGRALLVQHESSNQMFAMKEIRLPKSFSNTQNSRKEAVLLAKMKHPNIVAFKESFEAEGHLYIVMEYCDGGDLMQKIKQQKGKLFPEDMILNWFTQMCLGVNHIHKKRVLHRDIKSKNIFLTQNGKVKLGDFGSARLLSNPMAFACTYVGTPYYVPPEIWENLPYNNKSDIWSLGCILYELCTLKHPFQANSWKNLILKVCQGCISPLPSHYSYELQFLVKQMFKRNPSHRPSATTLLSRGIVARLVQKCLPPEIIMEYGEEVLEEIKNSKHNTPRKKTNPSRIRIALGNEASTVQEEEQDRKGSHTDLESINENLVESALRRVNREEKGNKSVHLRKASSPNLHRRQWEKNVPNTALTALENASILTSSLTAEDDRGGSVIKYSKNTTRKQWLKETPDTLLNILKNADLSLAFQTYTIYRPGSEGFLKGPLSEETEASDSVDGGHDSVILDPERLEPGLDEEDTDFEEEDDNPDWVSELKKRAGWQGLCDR
# Method in brief: as §1
# STK35 = STK35 (UniProt Q8TDR2)
# Method in brief: as §1
# TESK2 = TESK2 (UniProt Q96S53)
# Method in brief: as §1
# UniProt O14920 = target: T2, UniProt O14920
# T2 sequence (whole entry): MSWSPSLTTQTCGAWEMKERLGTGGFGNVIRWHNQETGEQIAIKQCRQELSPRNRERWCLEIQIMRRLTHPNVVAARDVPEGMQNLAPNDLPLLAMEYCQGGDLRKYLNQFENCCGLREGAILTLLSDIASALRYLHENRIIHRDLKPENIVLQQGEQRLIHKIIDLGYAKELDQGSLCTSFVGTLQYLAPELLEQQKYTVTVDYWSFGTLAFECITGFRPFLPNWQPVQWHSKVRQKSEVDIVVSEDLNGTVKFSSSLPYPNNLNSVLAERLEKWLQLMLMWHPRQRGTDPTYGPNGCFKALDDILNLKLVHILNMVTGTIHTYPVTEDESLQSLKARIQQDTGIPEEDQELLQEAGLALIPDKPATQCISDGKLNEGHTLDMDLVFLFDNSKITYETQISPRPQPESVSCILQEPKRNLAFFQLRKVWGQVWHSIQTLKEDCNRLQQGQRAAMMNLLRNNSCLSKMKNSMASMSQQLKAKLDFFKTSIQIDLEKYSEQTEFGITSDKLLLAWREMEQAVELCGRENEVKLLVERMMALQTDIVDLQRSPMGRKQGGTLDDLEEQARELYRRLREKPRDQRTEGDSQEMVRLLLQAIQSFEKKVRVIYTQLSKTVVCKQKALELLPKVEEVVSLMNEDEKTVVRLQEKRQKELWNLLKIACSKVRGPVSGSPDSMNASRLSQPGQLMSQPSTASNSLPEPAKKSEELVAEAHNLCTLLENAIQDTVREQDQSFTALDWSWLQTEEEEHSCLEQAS
# Method in brief: as §1
# UniProt P35626 = target: T3, UniProt P35626
# T3 sequence (whole entry): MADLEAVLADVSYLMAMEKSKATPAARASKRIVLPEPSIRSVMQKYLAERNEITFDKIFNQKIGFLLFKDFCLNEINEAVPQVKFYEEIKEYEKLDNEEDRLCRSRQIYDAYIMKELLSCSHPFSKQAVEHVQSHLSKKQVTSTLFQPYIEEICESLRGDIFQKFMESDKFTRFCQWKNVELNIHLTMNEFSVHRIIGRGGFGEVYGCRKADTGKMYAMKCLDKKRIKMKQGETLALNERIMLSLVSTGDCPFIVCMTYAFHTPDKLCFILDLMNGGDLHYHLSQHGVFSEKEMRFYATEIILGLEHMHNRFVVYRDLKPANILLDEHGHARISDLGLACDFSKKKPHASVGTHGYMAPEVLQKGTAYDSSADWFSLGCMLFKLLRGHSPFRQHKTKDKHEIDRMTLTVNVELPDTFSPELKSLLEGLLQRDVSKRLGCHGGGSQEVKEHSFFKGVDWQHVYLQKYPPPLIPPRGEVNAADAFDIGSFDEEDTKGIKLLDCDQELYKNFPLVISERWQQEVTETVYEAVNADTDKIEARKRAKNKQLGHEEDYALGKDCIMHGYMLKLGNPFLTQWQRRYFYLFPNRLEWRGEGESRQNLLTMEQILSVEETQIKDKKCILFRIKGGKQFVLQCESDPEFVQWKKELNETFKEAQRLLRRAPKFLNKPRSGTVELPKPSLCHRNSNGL
# Method in brief: as §1
# UniProt Q05655 = target: UniProt Q05655
# Method in brief: as §1
# UniProt Q16513 = target: UniProt Q16513
# Method in brief: as §1
# UniProt Q9NYL2 = target: UniProt Q9NYL2
# Method in brief: as §1
# Chain of DAPK3 (O43293 whole entry, looked up): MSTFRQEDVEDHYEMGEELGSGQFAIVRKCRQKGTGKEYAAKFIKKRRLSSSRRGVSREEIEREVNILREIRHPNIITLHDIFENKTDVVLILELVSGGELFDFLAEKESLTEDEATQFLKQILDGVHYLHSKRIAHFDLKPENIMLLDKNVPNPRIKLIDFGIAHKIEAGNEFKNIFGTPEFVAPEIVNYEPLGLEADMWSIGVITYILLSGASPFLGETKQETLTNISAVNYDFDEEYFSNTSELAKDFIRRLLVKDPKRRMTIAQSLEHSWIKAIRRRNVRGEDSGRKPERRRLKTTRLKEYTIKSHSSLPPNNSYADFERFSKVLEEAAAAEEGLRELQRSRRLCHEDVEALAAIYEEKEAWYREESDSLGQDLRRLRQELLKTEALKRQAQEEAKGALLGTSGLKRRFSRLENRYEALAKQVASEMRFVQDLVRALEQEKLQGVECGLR
# Chain of MELK (Q14680 whole entry, looked up): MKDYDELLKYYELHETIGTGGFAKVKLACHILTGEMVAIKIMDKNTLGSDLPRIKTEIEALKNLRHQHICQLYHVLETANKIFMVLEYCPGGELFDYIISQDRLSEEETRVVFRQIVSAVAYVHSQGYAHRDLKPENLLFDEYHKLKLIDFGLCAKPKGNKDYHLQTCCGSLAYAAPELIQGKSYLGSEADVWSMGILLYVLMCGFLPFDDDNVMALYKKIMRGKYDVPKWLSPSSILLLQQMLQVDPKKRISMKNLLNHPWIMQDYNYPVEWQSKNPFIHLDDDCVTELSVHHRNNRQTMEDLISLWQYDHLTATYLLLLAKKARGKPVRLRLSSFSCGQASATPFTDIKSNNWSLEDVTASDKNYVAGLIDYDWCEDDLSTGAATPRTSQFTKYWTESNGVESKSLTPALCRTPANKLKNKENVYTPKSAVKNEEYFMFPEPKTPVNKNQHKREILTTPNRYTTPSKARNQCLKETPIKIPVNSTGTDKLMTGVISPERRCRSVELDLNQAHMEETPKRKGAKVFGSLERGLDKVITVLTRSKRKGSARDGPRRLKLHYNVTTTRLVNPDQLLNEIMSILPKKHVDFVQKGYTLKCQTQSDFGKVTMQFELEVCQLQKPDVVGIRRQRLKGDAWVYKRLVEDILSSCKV
# Chain of UniProt Q9NYL2 (Q9NYL2 whole entry, looked up): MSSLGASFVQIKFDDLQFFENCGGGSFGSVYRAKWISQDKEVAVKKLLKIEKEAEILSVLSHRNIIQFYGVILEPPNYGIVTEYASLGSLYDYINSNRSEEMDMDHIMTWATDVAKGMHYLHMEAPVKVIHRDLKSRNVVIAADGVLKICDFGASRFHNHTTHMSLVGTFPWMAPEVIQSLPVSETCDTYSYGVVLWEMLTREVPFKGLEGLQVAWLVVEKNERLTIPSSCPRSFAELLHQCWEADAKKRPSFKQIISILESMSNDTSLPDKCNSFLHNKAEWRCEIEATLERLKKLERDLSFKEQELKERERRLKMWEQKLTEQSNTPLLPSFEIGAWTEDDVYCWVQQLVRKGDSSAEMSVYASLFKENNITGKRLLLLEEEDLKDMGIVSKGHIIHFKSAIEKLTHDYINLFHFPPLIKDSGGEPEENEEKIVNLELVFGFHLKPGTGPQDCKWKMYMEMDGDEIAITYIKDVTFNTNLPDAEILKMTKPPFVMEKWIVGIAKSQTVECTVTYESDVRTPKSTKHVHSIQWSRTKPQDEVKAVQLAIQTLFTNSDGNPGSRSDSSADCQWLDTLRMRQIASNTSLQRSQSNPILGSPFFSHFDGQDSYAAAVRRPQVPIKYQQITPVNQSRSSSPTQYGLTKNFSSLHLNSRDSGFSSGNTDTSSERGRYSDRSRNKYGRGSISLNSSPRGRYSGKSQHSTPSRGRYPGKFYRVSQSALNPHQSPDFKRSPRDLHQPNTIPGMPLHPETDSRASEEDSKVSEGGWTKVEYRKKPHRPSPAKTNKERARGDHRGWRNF
# Chain of MAP3K4 (Q9Y6R4 whole entry): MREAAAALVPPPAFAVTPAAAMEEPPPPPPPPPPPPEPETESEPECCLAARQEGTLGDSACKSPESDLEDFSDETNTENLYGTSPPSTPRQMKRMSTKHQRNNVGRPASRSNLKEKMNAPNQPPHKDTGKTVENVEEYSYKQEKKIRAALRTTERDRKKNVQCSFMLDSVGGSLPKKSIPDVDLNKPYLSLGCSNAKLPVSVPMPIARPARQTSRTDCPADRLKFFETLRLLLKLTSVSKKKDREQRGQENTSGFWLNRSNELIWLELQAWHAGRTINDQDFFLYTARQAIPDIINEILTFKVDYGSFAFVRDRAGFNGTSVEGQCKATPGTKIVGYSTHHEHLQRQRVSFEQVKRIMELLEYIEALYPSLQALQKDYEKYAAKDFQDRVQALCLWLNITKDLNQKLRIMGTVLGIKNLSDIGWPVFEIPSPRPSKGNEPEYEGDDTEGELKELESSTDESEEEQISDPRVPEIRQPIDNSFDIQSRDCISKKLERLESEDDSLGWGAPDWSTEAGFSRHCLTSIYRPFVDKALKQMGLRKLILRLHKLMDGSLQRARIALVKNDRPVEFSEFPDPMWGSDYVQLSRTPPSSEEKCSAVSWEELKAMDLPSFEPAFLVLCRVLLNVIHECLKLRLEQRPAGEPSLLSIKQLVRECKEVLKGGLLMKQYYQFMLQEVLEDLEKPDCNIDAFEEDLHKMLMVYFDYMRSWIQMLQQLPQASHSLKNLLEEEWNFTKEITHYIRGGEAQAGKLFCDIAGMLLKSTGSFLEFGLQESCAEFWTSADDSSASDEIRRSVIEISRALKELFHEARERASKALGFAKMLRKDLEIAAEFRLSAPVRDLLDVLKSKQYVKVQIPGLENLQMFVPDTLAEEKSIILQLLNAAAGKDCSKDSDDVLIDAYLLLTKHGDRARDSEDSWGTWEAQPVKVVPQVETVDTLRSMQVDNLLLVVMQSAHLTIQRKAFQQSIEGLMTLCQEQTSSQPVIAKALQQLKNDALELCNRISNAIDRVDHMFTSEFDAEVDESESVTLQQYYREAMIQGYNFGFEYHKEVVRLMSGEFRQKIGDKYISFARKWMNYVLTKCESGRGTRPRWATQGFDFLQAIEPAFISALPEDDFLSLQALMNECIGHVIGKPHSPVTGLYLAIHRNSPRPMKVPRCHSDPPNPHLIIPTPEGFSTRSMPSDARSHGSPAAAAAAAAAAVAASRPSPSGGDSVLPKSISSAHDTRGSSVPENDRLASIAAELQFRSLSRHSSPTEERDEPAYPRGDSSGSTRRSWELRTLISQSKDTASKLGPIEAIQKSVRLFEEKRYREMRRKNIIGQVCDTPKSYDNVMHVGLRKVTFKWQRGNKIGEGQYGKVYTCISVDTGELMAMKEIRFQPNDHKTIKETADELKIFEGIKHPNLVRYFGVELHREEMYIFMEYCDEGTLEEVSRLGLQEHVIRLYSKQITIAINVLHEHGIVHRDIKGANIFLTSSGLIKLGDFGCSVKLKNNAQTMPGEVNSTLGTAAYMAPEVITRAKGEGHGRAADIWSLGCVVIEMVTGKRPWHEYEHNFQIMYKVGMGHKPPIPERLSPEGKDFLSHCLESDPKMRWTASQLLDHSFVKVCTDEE
# Chain of UniProt Q05655 (Q05655 whole entry, looked up): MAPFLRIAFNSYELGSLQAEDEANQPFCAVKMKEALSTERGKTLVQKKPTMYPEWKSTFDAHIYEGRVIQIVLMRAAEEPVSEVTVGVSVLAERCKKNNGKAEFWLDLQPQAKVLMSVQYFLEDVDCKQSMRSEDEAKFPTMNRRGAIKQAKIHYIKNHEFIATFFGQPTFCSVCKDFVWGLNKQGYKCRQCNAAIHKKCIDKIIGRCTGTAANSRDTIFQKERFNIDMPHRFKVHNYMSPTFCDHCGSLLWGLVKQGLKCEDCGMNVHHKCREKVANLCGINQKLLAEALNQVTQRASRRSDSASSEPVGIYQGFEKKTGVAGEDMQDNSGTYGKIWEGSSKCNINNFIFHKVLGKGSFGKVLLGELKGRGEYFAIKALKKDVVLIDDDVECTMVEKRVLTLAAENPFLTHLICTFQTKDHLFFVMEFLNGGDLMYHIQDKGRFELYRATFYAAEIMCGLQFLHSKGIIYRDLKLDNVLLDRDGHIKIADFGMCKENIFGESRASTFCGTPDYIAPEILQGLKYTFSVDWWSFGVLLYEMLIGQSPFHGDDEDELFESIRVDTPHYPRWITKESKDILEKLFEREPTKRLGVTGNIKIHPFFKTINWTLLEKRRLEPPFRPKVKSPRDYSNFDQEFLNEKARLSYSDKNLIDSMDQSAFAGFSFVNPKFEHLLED
# Chain of TESK2 (Q96S53 whole entry, looked up): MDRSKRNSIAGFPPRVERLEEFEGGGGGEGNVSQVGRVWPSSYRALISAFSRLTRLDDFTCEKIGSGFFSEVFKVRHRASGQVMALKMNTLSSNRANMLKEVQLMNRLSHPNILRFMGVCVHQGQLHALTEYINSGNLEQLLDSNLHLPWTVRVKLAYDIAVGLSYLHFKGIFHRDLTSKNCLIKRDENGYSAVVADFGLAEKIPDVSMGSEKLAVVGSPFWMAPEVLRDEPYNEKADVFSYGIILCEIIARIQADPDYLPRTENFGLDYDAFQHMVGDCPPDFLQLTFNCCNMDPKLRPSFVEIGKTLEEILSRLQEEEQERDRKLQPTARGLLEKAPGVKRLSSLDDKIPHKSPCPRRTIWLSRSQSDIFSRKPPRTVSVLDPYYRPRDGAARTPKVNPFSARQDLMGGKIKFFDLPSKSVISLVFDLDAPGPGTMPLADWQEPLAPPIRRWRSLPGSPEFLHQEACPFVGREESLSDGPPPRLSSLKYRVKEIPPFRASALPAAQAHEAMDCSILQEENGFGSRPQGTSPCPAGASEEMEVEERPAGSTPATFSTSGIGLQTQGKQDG
SMILES,pIC50 (DAPK3; cell material: Lysate mix),pIC50 (DYRK1A; cell material: Lysate mix),pIC50 (LRRK2),pIC50 (MAP3K4; cell material: Lysate mix),pIC50 (MELK; cell material: Lysate mix),pIC50 (NEK3; cell material: Lysate mix),pIC50 (STK35; cell material: Lysate mix),pIC50 (TESK2; cell material: Lysate mix),pIC50 (UniProt O14920; cell material: Lysate mix),pIC50 (UniProt P35626; cell material: Lysate mix),pIC50 (UniProt Q05655; cell material: Lysate mix),pIC50 (UniProt Q16513; cell material: Lysate mix),pIC50 (UniProt Q9NYL2; cell material: Lysate mix),pIC50 (DAPK3; cell material: Jurkat cells),pIC50 (DYRK1A; cell material: Jurkat cells),pIC50 (DYRK1A; cell material: Jurkat lysate),pIC50 (MAP3K4; cell material: Jurkat cells),pIC50 (MAP3K4; cell material: Jurkat lysate),pIC50 (MELK; cell material: Jurkat cells),pIC50 (MELK; cell material: Jurkat lysate),pIC50 (NEK3; cell material: Jurkat cells),pIC50 (STK35; cell material: Jurkat cells),pIC50 (STK35; cell material: Jurkat lysate),pIC50 (TESK2; cell material: Jurkat lysate),pIC50 (UniProt O14920; cell material: Jurkat cells),pIC50 (UniProt O14920; cell material: Jurkat lysate),pIC50 (UniProt P35626; cell material: Jurkat lysate),pIC50 (UniProt Q05655; cell material: Jurkat cells),pIC50 (UniProt Q05655; cell material: Jurkat lysate),pIC50 (UniProt Q16513; cell material: Jurkat lysate),pIC50 (UniProt Q9NYL2; cell material: Jurkat cells),pIC50 (UniProt Q9NYL2; cell material: Jurkat lysate)
C#CCNC(=O)c1cc(Nc2cc(C)[nH]n2)nc(N2CCN(Cc3ccc(S(=O)(=O)F)cc3)CC2)n1,4.77,< 4.52,5.27,4.88,< 4.52,< 4.52,6.01,< 4.52,< 4.52,< 4.52,< 4.52,< 4.52,< 4.52,–,–,–,–,–,–,–,–,–,–,–,–,–,–,–,–,–,–,–
O=C(NCCNC(=O)c1cc(Nc2cc(C3CC3)[nH]n2)nc(N2CCN(Cc3ccc(S(=O)(=O)F)cc3)CC2)n1)OC1CC/C=C/CCC1 (stereo not given),< 4.52,< 4.52,< 4.52,< 4.52,< 4.52,< 4.52,5.2,< 4.52,< 4.52,< 4.52,< 4.52,< 4.52,< 4.52,< 4.52,< 4.52,< 4.52,5.96,< 4.52,< 4.52,< 4.52,5.56,6.88,5.19,< 4.52,< 4.52,< 4.52,< 4.52,5.19,< 4.52,< 4.52,< 4.52,< 4.52
